Assay results from patent US20120115895A1, “TRICYCLIC INDOLE-DERIVED SPIRO DERIVATIVES AS CRTH2 MODULATORS” (Merck Serono S.A., priority 2009, published 2012).

Assays:
CRTH2 [1] = target: T1, CRTH2 (Homo sapiens, UniProt Q9Y5Y4); assay: Radioligand binding Scintillation Proximity Assay ([3H]PGD2, hCRTH2-CHO cell membranes); set-up: host or cells: CHO cells
T1 sequence (Q9Y5Y4 1-395): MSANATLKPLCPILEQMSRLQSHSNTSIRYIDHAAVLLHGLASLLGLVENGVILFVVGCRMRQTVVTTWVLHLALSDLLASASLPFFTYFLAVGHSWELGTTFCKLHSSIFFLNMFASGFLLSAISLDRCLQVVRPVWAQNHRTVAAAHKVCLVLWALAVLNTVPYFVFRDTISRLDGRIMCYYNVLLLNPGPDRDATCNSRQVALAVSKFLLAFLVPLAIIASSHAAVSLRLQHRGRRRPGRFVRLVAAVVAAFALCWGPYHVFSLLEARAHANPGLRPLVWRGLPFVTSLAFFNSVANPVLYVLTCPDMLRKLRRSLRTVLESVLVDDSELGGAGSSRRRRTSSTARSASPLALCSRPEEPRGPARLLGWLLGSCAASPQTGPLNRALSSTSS
Method: Adherent CHO cells expressing hCRTH2 (Euroscreen, Belgium) were cultured in 225 cm2 cell culture flasks (Corning, USA) in 30 ml of medium. After two rinses of phosphate buffered saline (PBS), cells were harvested in 10 ml of PBS containing 1 mM EDTA, centrifuged at 500×g for 5 min at 4° C. and frozen at −80° C. The pellet was re-suspended in 50 mM Tris-HCl, pH 7.4, 2 mM EDTA, 250 mM Sucrose, containing protease inhibitor cocktail tablets, (Complete EDTA-free, Roche, Germany) and incubated 30 min at 4° C. Cells were disrupted by nitrogen cavitation (Parr Instruments, USA) at 4° C. (800 p.s.i. for 30 min), and centrifuged at 500×g for 10 min at 4° C. Pellet containing nuclei and cellular debris was discarded and supernatant was centrifuged 60 min at 4° C. at 45000×g. Membrane pellet was re-suspended in storage buffer (10 mM HEPES/KOH pH 7.4, 1 mM EDTA, 250 mM sucrose, protease inhibitor cocktail tablets) using Dounce homogenization and frozen in liquid nitrogen, and stored at −80° C.
The inhibitory activity can be investigated by a radioligand binding Scintillation Proximity Assay (SPA) (Sawyer et al., Br. J. Pharmocol 2002, 137, 1163-72). The SPA radioligand binding assay was performed at room temperature in binding buffer (10 mM HEPES/KOH pH 7.4, 10 mM MnC12, with protease inhibitor cocktail tablets), containing 1.5 nM [3H]PGD2 (Perkin Elmer), 10-50 μg/ml of hCRTH2—CHO cell membrane protein and 2 mg/ml of Wheat-germ agglutinin Scintillation Proximity Assay beads (RPNQ0001, GE-Healthcare) in a final volume of 100 μl in 96 well plates (Corning, USA). Non-specific binding was determined in the presence of 10 μM PGD2 (Cayman, USA). Competing Compounds of Formula (I) were diluted in dimethylsulphoxide so that the total volume of dimethylsulfoxide was kept constant at 1% dimethylsulphoxide (Me2SO). Serial dilutions of 100 μM to 100 pM were prepared and 10 μl each of the compounds of Formula (I) stock solutions were added to the binding assay reagents and incubated for 90 min with agitation at room temperature. Binding activity was determined by using a 1450 Micro-beta scintillation counter (Wallac, UK).

CRTH2 [2] = target: T1, CRTH2; assay: PGD2-induced eosinophil cell shape assay in human whole blood; type: cell-based; set-up: endogenous in cells; host or cells: eosinophils in human whole blood from healthy volunteers; details: 10 nM PGD2
Method: The test compounds were diluted in dimethylsulphoxide so that the total volume of dimethylsulfoxide was kept constant at 2% dimethylsulphoxide (Me2SO). Serial dilutions of 200 μM to 0.09 μM were prepared. Samples of 90 μl of human blood from healthy volunteers (Centre de Transfusion Sanguine de Genève) were pre-incubated in polypropylene Falcon tubes (BD 352063) for 20 minutes in a water bath at 37° C. with 10 μl of diluted compounds. For CRTH2 activation, 100 μl PGD2 (Cayman 12010) at 20 nM was added (10 nM final) to each tube and cells were maintained at 37° C. For negative control cells were treated with PBS. After 10 minutes, cell activation was stopped with 120 μl Formaldehyde 10% (4% final, Fluka 41650) and cells were rested for 10 minutes at room temperature. Fixed cells were transferred into polypropylene tubes and then treated for 1 hour in a water bath at 37° C. with 2 ml of Triton—Surfact-Amps X-100 (Pierce 28314) at 0.166% (0.13% Triton final). After several washes with PBS (red cells lysed progressively during washes, two washes are necessary), cells were analyzed by flow cytometry on a FACSCalibur.

[3] = In vivo pharmacokinetic evaluation in rat; set-up: species or system Sprague Dawley male rats
Method: (§1) In order to study the pharmacokinetic (PK) profile of test compounds in vivo, Sprague Dawley male rats or C57BL/6 female mice were dosed intravenously or after oral gavage. For both species, test compounds were dosed in solution at 1 mg/kg for i.v. route (10% ethanol, 10% N,N-dimethylacetamide, 30% propylene glycol, 50% water, v/v) and in suspension at 5 mg/kg (0.5% carboxymethylcellulose suspension, containing 0.25% Tween 20 in water) for oral gavage. PK profile in rat was obtained from 3 animals per dosing route and mouse PK profile was determined from 3 animals for each time points. The volume of administration was 2 mL/kg for i.v. dosing in both species and either 5 mL/kg (rat) or 10 mL/kg (mouse) for oral gavage. Blood samples (100 µL/time point) were collected at 0.083 (5 min), 0.25, 0.5, 1, 4, 7 and 24 hours post-dose for i.v. dosing, and at 0.5, 1, 4, 7 and 24 h for oral dosing, into heparin-Li+ containing tubes. For rats, all blood samples were collected trough a catheter in the carotid artery (placed in the artery the day before the experiment), under light isoflurane anesthesia, and stored on ice until centrifugation and plasma isolation. For mouse, blood samples were collected from intracardiac puncture at sacrifice at each time point and processed as described above for the rat. Plasma samples were stored frozen until analysis (−20° C. to −70° C.). For bioanalysis, samples were processed by protein precipitation (acetonitrile, formic acid 0.1%, addition of 3 volumes) after addition of one internal standard and analysed using a sensitive and selective LC/MS/MS method. An aliquot of the resulting supernatant was subject to LC/MS/MS analysis using a reverse phase column (Waters Xterra, C8, (3.5 μm particle size, 2.1×50 mm) and a short gradient (1 min) from (Solvent A) 85% water, 15% acetonitrile and 0.1% formic acid to (Solvent B) 90% acetonitrile, 10% water and 0.1% formic acid followed by isocratic conditions of Solvent B for 3.5 min at 0.4 mL/min. Column effluent was monitored using a Sciex API 4000 triple quadrupole mass spectrometer with a Turbo V electrospray ion source. Unknown concentrations of test compounds were determined using a calibration curve ranging from 1 to 3000 ng/mL.

[4] = test system: OVA-induced eosinophil recruitment in lung; assay: OVA-induced lung eosinophilia in mice; type: in vivo, BALB/c mice; details: oral route, dose of 30 mg/Kg
Method: BALB/c mice (6-8 weeks old) were immunized with ovalbumin (10 μg i.p) on day 0 and 7. In order to elicit a local inflammatory response in the lung, mice were challenged between day's 15-17 with a nebulised solution of ovalbumin (10 μg/ml; De Vilibiss Ultraneb 2000, once daily for 30 min during the 3 days). On each separate day between 15 and 17 each animal received via oral gavage the test compound, at t−1 h and t+7 h with respect to OVA exposure at t=0 h. Eight hours after the final OVA challenge, bronchoalveolar lavage (BAL) was then carried out. Total cell numbers in the BAL fluid samples were measured using a haemocytometer. Cytospin smears of the BAL fluid samples were prepared by centrifugation at 1200 rpm for 2 min at room temperature and stained using a DiffQuik stain system (Dade Behring) for differential cell counts.

[5] = In vivo pharmacokinetic evaluation in mouse; set-up: species or system C57BL/6 female mice
Method: as §1

- IC50 (CRTH2 [1]; 1.5 nM [3H]PGD2, hCRTH2-CHO membranes, SPA, read-out: IC50 binding): 45 nM
- IC50 (CRTH2 [1]; comparison table with (+)-Enantiomer, read-out: Binding IC50): 68 nM
- IC50 (CRTH2 [2]): 150 nM
- Cmax ([3]; male, Sprague Dawley, rat, plasma, rats, po, 5 mg/Kg): 489 ng/mL
- Fz in rats ([3]; oral bioavailability, rats, 5 mg/kg po, 1 mg/kg i.v.): 37%
- oral bioavailability in rat ([3]; rat, in words): significant improvement
- Cmax ([5]; female, C57BL/6, mouse, plasma, mice, po, 5 mg/Kg): 691 ng/mL
- oral bioavailability in mouse ([5]; mouse, in words): significant improvement
- Fz in mice ([5]; oral bioavailability, mice, 5 mg/kg po, 1 mg/kg i.v.): 39%
SMILES: CN1C(=O)N(Cc2cc(Cl)ccc2F)C(=O)C12C(=O)N(CC(=O)O)c1ccc(Cl)cc12 (single isomer, unassigned; (+)) [Example 2, (+)-[5′-chloro-1-(5-chloro-2-fluorobenzyl)-3-methyl-2,2′,5-trioxospiro[imidazolidine-4,3′-indol]-1′(2′H)-yl]acetic acid]
- inhibition of OVA-induced eosinophil recruitment in lung [4]: 79%
